Marks after values point to notes of the source that are not given here.
Test system: Recombinant ChLAC8
Assay: Laccase activity assay and enzyme kinetics of recombinant ChLAC8 with monolignol substrates
Format: biochemical, Cleome hassleriana
Settings: for oxidation of monolignol by ChLAC8 (decrease in substrate by HPLC): 200 μM substrate, 30 min, 25° C.; for dimers in reaction products (LC-MS/MS) / trimers in reaction products (LC-MS/MS): reaction with ChLAC8; for Kcat / Km / Vmax: recombinant ChLAC8, substrate 25 to 800 μM, pH 6.8, 25° C.
Procedure: The open reading frame (ORF) of ChLAC8 (ChLAC8X1, XM_010555066.1) was amplified with the primers listed in Wang Supp. Table 4, ligated into the pENTR/D-TOPO vector (Invitrogen), and subcloned into pDEST17 fused with a 6× histidine tag at the N-terminus via Gateway LR recombination reaction (Invitrogen). The resulting vector (pDEST17-ChLAC8) was transformed into E. coli Rosetta (DE3) (Novagen) for protein expression. The transgenic E. coli strain was cultured in LB medium at 37° C. until OD600=0.4-0.6 and then supplemented with 0.5 mM isopropyl-β-D-thiogalactoside (IPTG) to induce the expression of ChLAC8 at 16° C. for 20 h. After induction, cell cultures were harvested by centrifugation at 10,000×g for 5 min at 4° C., and the resulting pellets were used for ChLAC8 protein purification via Ni-NTA resin (Thermo Scientific) according to the manufacturer's manual. The eluted protein was further desalted into 50 mM potassium phosphate buffer (pH 6.8) using a 30 kDa cut-off Amicon Ultra centrifugal filter (Millipore). The purity of recombinant ChLAC8 was examined by SDS-PAGE and the protein concentration was quantified by Bradford assays.
Laccase activity assays were performed in a 100 μL reaction mixture consisting of 50 mM potassium phosphate buffer (pH 6.8), 10-20 μg of recombinant ChLAC8, and 200 μM monolignol substrate (caffeyl alcohol, coniferyl alcohol or sinapyl alcohol). The reactions were incubated at 25° C. for 30 min and terminated by adding 100 μL of methanol. The reaction products were injected into an HPLC or LC-MS/MS system for analysis as described below. The decrease in the level of the substrate was measured to calculate the enzyme activity. To determine kinetic parameters, ChLAC8 was incubated with different concentrations of caffeyl alcohol or sinapyl alcohol in a range from 25 to 800 μM. The enzyme assays were performed in triplicate at each substrate concentration, and the Vmax and Km values were calculated by Graphpad Prism 8 software with nonlinear regression analysis.
The reaction products were analyzed on an Agilent 1260 HPLC system equipped with a Luna C18(2) reverse-phase column (5 μm particle, 250×4.6 mm, Phenomenex) and separated in a mobile phase consisting of solvent A (1% in phosphoric acid in water) and solvent B (acetonitrile) with the following gradient: 5% B for 5 min, to 33% B in 25 min, to 45% B in 5 min, to 95% B in 5 min, keep at 95% B for 5 min, back to 5% B in 5 min.
LC-MS/MS analysis was performed using an Agilent 1290 Infinity II liquid chromatography system coupled to an Agilent 6400 Series Triple Quadrupole System with electrospray ionization source in negative ionization mode. A reverse phase ZORBAX RR Eclipse Plus C18, 95 Å, 4.6×250 mm, 5 μm (Agilent) was used for separation. The gradient for HPLC separation was 0.1% (v/v) formic acid in water (A) and 0.1% (v/v) formic acid in acetonitrile (B) with the following solvent gradient: 5% B for 5 min, to 40% B in 30 min, to 95% B in 5 min, 95% B for 5 min, to 5% B in 1 min. The total LC-MS/MS run was 46 min with a flow rate of 1.0 mL/min. Injection volume was 10 μL. MS data were recorded in the range of m/z 100-700 (Perna et al., 2018).

Compound: OC/C=C/c1ccc(O)c(O)c1 [Caffeyl alcohol, caffeyl alcohol]
- oxidation of monolignol by ChLAC8 (decrease in substrate by HPLC): could oxidize
- dimers in reaction products (LC-MS/MS): consistent with the masses of dimers
- trimers in reaction products (LC-MS/MS): trimers were observed
- Km value for caffeyl alcohol relative to that for sinapyl alcohol (recombinant ChLAC8): ~3.5 fold
- Kcat: 0.019 ± 0.003* sec^−1
- Km: 210 ± 90.6 µM
- Vmax: 284.4 ± 50.4 pKat mg^−1

Compound: COc1cc(/C=C/CO)ccc1O [Coniferyl alcohol, coniferyl alcohol]
- oxidation of monolignol by ChLAC8 (decrease in substrate by HPLC): not
- dimers in reaction products (LC-MS/MS): No dimers were detected

Compound: COc1cc(/C=C/CO)cc(OC)c1O [Sinapyl alcohol, sinapyl alcohol]
- oxidation of monolignol by ChLAC8 (decrease in substrate by HPLC): could oxidize
- dimers in reaction products (LC-MS/MS): consistent with the masses of dimers
- trimers in reaction products (LC-MS/MS): No trimers were detected
- Kcat: 0.013 ± 0.001 s⁻¹
- Km: 60.2 ± 16.7 µM
- Vmax: 192.0 ± 12.8 pKat mg^−1

From patent publication US12565659B2, “Recombinant lac polynucleotides and uses thereof to increase production of C-lignin in plants” (UNIVERSITY OF NORTH TEXAS, priority 2020, dated 2026)
